The numbers were not newly measured in patent US20090223408A1, “Use of Sub-Micron Copper Salt Particles in Wood Preservation” (PhibroWood, LLC, priority 2004, published 2009), which cites them from elsewhere.

Like-named read-outs stand apart in the source and are kept apart here.

For data set [1] the following is noted: baseline about 4 mg copper per liter.

Take `[OH][Cu][OH]` [copper hydroxide, copper(II) hydroxide]: the Solubility of copper is listed as 640 ppm (pH 4), 2 ppm (pH 7) and “about 0.01 ppm” (pH 10).
Regarding copper citrate, the “leachate copper concentration relative to CCA baseline” value in data set [1] is given as “over fifteen times the baseline concentration”.
